Source: patent US20080280920A1, “Plasminogen Activator Inhibitor-1 Inhibitors” (priority 2005, published 2008)

Columns and labels:
[1] = biological target: T1, wildtype human PAI-1 (Homo sapiens, UniProt P05121); test: PAI-1/uPA assay (residual uPA activity, fluorescent substrate SpectroFluor); assay type: biochemical; conditions: for Percent PAI-1 inhibition: at the concentration given, percent of activity of untreated PAI-1; for Conc. of compound required for PAI-1 inhibition: concentration giving the percent inhibition, 6 nM PAI-1, 8 nM uPA
T1 construct: purchased Molecular Innovations Lot# HWT-804
Protocol: Principle: The assay is based on using a fluorescent substrate (SpectroFluor) to measure residual uPA following inhibition of uPA by PAI-1. PAI-1 used in the assay is pre-treated in the presence of increasing concentrations of the lead compounds to screen for any inhibitory effects on PAI-1. Method: This assay was performed in 96 well microtiter plates. The concentrations of uPA (8 nM) and PAI-1 (6 nM) used in this assay were carefully optimized when using the fluorescent substrate, SpectroFluor™. Stock solutions (10 mM) of all lead compounds were prepared fresh in DMSO. […] 20 μl of 6 nM wildtype human PAI-1 (Molecular Innovations, Lot# HWT-804) was incubated for 15-20 minutes at room temperature in 96 well microtiter plates either with buffer, (50 mM HEPES, 150 mM NaCl, 0.05% Tween-20, 1% BSA, pH 6.6) or various concentrations (10 nM to 100 μM final concentration) of lead compounds in a total volume of 80 μl. A 20 μl aliquot of 8 nM uPA (HMW) solution in 0.05M Tris Buffered™ saline (TBS), pH 8.4 was added to each well and the mixture incubated for an additional 5 minutes at RT. The proteolytic reaction was initiated by addition of 50 μl of 0.1 mM SpectroFluor (Spectrozyme UK Fluorogenic substrate) to each well. The kinetics of the free chromophore, 7-amino-4-methylcoumarin (AMC) released in the course of peptide cleavage by the protease, uPA, was monitored for 30 minutes at 37° C. on a spectrofluorometric microplate reader with an excitation wavelength of 360 nm and emission wavelength of 440 nm. Kinetic data regarding the rate of substrate cleavage by uPA was acquired with Softmax PrO™ software. The difference between the residual uPA activity in the presence or absence of untreated PAI-1, at the molar ratio used, was considered as the “total” PAI-1 activity (100%). The inhibition of uPA by PAI-1 treated with lead compounds was expressed as a percentage of the initial activity of untreated PAI-1. Controls were performed during each experiment to ensure the nearly complete inhibition of uPA by untreated PAI-1 and also to ensure the absence of any direct effect of the lead compounds on uPA alone or on SpectroFluor.

[2] = biological target: T2, PAI-1 interaction with vitronectin (Homo sapiens, UniProt P05121); test: PAI-1 vitronectin interaction ELISA; assay type: binding; conditions: 15 nM PAI-1, vitronectin coated plates
T2 construct: purchased Molecular Innovations
Protocol: Principle: This ELISA assay is based on the interaction of wildtype human PAI-1 (aa 110-145) with the N-terminal somatomedin B-like (SMB) domain (aa 1-40) on vitronectin. PAI-1 was allowed to bind to vitronectin coated plates. The bound PAI-1 was detected with a HRP-conjugated polyclonal goat anti-human PAI-1 antibody using a standard ELISA method. In order to screen these compounds for their ability to disrupt PAI-1's interaction with vitronectin, PAI-1 was pre-incubated with various concentrations of the lead compounds before being allowed to bind to vitronectin.
Method: Human monomeric vitronectin (Vn; Molecular Innovations) was diluted to a concentration of 2.5 μg/ml in a buffer containing 100 mM Na2CO3, pH 9.6. […]
In a separate 96-well microtiter plate 20 μL per well of wildtype human PAI-1 (15 nM final concentration) was added with or without various concentrations of lead compounds (1 μM to 1000 μM final concentration) and incubated at room temperature for 15 minutes on a rotating shaker. […] Optical density was measured at 450 nm on a SoftMax PrO™ plate reader.
Where vitronectin inhibition was evident, IC50 values for a test compound were calculated by fitting a non-linear sigmoidal regression curve to log micromolar concentration versus optical density data.

T1 sequence (P05121 24-402): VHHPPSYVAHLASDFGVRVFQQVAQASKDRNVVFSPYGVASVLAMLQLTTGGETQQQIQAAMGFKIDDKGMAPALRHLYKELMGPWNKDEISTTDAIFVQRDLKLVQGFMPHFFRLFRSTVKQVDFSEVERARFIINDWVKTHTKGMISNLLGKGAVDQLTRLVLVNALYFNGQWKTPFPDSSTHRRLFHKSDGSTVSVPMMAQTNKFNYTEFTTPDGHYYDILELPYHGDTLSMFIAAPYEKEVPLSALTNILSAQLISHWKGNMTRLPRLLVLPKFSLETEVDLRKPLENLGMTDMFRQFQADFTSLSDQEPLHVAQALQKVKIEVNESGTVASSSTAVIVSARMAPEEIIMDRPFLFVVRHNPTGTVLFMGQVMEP
T2 sequence (P05121 24-402): as above

Percent PAI-1 inhibition [1]	Conc. of compound required for PAI-1 inhibition [1] [µM]	IC50 [2] [µM]	SMILES
23	10	910	CCOC(=O)[C@H](CCCNC(=N)NS(=O)(=O)c1c(C)cc(OC)c(C)c1C)NC(=O)N[C@@H](Cc1csc2ccccc12)C(=O)OCC [Compound Q012059, (2S)-2-[({[(1S)-1-carboxy-2-(thianaphthen-3-yl)ethyl]amino}carbonyl)amino]-5-({imino[(4-methoxy-2,3,6-trimethylphenylsulfonyl)amino]methyl}amino)pentanoic acid diethyl ester]
57	5	340	COc1cc(CNCCCn2ccnc2)cc(CN2CCN(c3ncccn3)CC2)c1O [Compound Q012110, 2-Methoxy-4-({3-[(1H-imidazol-1-yl)propyl]amino}methyl)-6-[(4-pyrimidin-2-ylpiperazin-1-yl)methyl]phenol]
